Read-outs that look alike come from different tables or passages of the source.
Key:
Type in all cases: biochemical
MMP-3 = molecular target: T1, MMP-3 (Homo sapiens, UniProt P08254); assay: Automated MMP Profiling Assay, MMP-3 fluorogenic; conditions: for IC50: 96-well automated, P218
T1 construct: Truncated Prostromelysin-257 was expressed in a soluble form in E.coli; made in house; host or cells: E. coli
Source text: This assay with each invention compound was run with the three enzymes MMP-3, MMP-9 and MMP-2 in parallel as adapted for a 96-well microtitre plate using a Hamilton A® workstation.

MMP-9 = molecular target: T2, MMP-9 (Homo sapiens, UniProt P14780); assay: Automated MMP Profiling Assay, MMP-9 fluorogenic; conditions: for IC50: 96-well automated, P218
T2 construct: from tissue; host or cells: human polymorphonuclear leukocytes (PMN) from whole blood (New York Blood Center), PMA-stimulated supernatant

MMP-2 = molecular target: T3, MMP-2 (Homo sapiens, UniProt P08253); assay: Automated MMP Profiling Assay, MMP-2 fluorogenic
T3 sequence (P08253 110-660): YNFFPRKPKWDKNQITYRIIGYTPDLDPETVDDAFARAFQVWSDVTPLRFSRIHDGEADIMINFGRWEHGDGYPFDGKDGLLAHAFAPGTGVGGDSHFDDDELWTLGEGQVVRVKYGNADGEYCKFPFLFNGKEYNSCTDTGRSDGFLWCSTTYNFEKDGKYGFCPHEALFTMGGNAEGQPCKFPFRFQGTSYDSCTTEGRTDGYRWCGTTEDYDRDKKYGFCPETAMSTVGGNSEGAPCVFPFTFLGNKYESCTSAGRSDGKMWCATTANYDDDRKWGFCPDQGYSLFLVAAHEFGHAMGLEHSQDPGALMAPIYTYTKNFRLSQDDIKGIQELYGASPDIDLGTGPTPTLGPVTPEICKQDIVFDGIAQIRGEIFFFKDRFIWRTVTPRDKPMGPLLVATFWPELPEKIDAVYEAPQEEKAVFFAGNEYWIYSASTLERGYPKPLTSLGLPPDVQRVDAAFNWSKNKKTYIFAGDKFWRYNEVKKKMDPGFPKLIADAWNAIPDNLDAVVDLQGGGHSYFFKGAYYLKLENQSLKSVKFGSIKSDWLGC

[1] = 96-well automated, P218, read-out: MMP-2 Fluorogenic IC50 (profiling)

T2 sequence (P14780 107-707 limits assumed): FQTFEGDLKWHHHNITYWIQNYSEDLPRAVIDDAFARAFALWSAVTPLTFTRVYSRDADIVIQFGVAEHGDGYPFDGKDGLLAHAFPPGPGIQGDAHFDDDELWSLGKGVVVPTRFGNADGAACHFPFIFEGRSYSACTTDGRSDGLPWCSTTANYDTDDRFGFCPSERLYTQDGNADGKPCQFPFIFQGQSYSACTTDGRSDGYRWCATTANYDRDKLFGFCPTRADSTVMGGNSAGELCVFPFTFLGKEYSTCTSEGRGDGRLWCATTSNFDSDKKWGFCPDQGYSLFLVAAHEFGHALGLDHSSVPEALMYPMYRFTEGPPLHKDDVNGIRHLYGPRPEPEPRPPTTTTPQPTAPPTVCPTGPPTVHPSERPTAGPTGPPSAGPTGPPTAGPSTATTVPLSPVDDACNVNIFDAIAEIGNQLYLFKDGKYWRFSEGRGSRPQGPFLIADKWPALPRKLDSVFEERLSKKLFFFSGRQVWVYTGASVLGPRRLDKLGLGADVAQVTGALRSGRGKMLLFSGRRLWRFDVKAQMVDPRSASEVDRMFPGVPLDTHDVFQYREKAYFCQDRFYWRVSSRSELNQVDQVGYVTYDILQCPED
T1 sequence (P08254 100-274 limits assumed): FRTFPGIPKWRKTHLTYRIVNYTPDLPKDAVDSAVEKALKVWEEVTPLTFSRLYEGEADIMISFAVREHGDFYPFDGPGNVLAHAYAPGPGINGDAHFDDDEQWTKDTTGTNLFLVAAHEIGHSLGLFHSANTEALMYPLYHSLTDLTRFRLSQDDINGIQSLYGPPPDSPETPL

For `O=C(CC(CCCc1ccccc1)C(=O)O)c1ccc(-c2ccc(Br)cc2)cc1` (stereo not drawn) [Example 134, [1,1'-Biphenyl]-4-butanoic acid, 4'-bromo-γ-oxo-α-(3-phenylpropyl)-], which IC50 (MMP-3) is on record?
The IC50 was 304 nM.

What about the IC50 (MMP-9) of the same compound?
Its IC50 is 358 nM.

And the IC50 (MMP-2; [1])?
Its IC50 is 63 nM.

For `O=C(CC(CCCc1ccccc1)C(=O)O)c1ccc(-c2ccc(OCC3CCCCC3)cc2)cc1` (stereo not drawn) [Example 93, [1,1'-Biphenyl]-4-butanoic acid, 4'-(cyclohexylmethoxy)-γ-oxo-α-(3-phenylpropyl)-], which IC50 (MMP-3) is on record?
The IC50 was 129 nM.

And the IC50 (MMP-9)?
The IC50 was > 1250 nM.

And the IC50 (MMP-2; [1])?
Its IC50 is 36 nM.

Which inhibition at 5 µM (MMP-3) does the source give for `O=C(CC(CCCc1ccccc1)C(=O)O)c1ccc(-c2cccnc2)cc1` (stereo not drawn) [Example 70, Benzenepentanoic acid, α-[2-oxo-2-[4-(3-pyridinyl)phenyl]ethyl]-] here?
The inhibition at 5 µM was 44%.

What about the inhibition at 5 µM (MMP-9) of the same compound?
The inhibition at 5 µM was 7%.

And the IC50 (MMP-2; [1])?
The IC50 was 1750 nM.

What does the source list for `O=C(CC(CCCc1ccccc1)C(=O)O)c1ccc(-c2ccc(/C=C\c3ccccc3)cc2)cc1` (stereo not drawn) [Example 358, [1,1'-Biphenyl]-4-butanoic acid, 4'-γ-oxo-4'-(2-phenylethenyl)-α-(3-phenylpropyl)-, (Z)-]?
inhibition at 5 µM (MMP-3): 39%; inhibition at 5 µM (MMP-9): 4%; IC50 (MMP-2; [1]): 124 nM

Which results are given for `O=C(CC(CCN1C(=O)c2cccc3c(Br)ccc(c23)C1=O)C(=O)O)c1ccc(-c2ccc(Cl)cc2)cc1` (stereo not drawn) [Example 418]?
IC50 (MMP-3): 305 nM; IC50 (MMP-9): 89 nM; IC50 (MMP-2; [1]): 420 nM

What does the source list for `CN(C)C(=O)c1ccccc1SCC(CC(=O)c1ccc(-c2ccc(Cl)cc2)cc1)C(=O)O` (stereo not drawn) [Example 436, [1,1'-Biphenyl]-4-butanoic acid, 4'-chloro-α-[[[2-[(dimethylamino)carbony]phenyl]thio]methyl]-γ-oxo-]?
IC50 (MMP-3): 158 nM; IC50 (MMP-9): 519 nM; IC50 (MMP-2; [1]): 286 nM

Which inhibition at 5 µM (MMP-3) does the source give for `CC(=O)O[C@@H]1C[C@@H](C(=O)c2ccc(-c3ccc(Cl)cc3)cc2)[C@H]1C(=O)O` (relative stereo) [Example 394, Cyclobutanecarboxylic acid, 2-(acetyloxy)-4-[(4'-chloro[1,1'-biphenyl]-4-yl)carbonyl]-, (1α,2β,4α)-] here?
Its inhibition at 5 µM is 26%.

What about the inhibition at 5 µM (MMP-9) of the same compound?
The inhibition at 5 µM was 15%.

What about the IC50 (MMP-2; [1]) of the same compound?
Its IC50 is 2000 nM.

How did the IC50 (MMP-3) turn out when `NC(=O)c1ccc(COc2ccc(-c3ccc(C(=O)CC(CCCc4ccccc4)C(=O)O)cc3)cc2)cc1` (stereo not drawn) [Example 112, [1,1'-Biphenyl]-4-butanoic acid, 4'-[[4-(aminocarbonyl)phenyl]methoxy]-γ-oxo-α-(3-phenylpropyl)-] was run?
Its IC50 is 30 nM.

What about the IC50 (MMP-9) of the same compound?
Its IC50 is 884 nM.

And the IC50 (MMP-2; [1])?
The IC50 was 11 nM.

Which results are given for `O=C(O)[C@H]1[C@H](CN2C(=O)c3ccc([N+](=O)[O-])cc3C2=O)CC[C@@H]1C(=O)c1ccc(-c2ccc(Cl)cc2)cc1` (relative stereo) [Example 386, Cyclopentanecarboxylic acid, 2-[(4'-chloro[1,1'-biphenyl]-4-yl)carbonyl]-5-[(1,3-dihydro-5-nitro-1,3-dioxo-2H-isoindol-2-yl)methyl]-, (1α,2β,5β)-]?
IC50 (MMP-3): 8.34 nM; IC50 (MMP-9): 0.97 nM; IC50 (MMP-2; [1]): 11.7 nM

`O=C(O)[C@H]1[C@H](COc2ccc(Cl)cc2)CC[C@@H]1C(=O)c1ccc(-c2ccc(Cl)cc2)cc1` (relative stereo) [Example 388, Cyclopentanecarboxylic acid, 2-[(4'-chloro[1,1'-biphenyl]-4-yl)carbonyl]-5-[(4-chlorophenoxy)methyl]-, (1α,2β,5β)-] was tested. Which IC50 (MMP-3) did it give?
Its IC50 is 105 nM.

And the IC50 (MMP-9)?
The IC50 was 467 nM.

And the IC50 (MMP-2; [1])?
The IC50 was 30 nM.

With `COc1ccccc1C(=O)OC[C@@H]1CC[C@H](C(=O)c2ccc(-c3ccc(Cl)cc3)cc2)[C@H]1C(=O)O` (relative stereo) [Example 381, Benzoic acid, 2-methoxy-, [2-carboxy-3-[(4'-chloro[1,1'-biphenyl]-4-yl)carbonyl]cyclopentyl]methyl ester, (1α,2β,3α)-] as the compound, how does the IC50 (MMP-3) read?
The IC50 was 46 nM.

And the IC50 (MMP-9)?
Its IC50 is 97 nM.

And the IC50 (MMP-2; [1])?
The IC50 was 44 nM.

Which results are given for `CC(C)(C)CC(=O)N1CC[C@H](C(=O)c2ccc(-c3ccc(Cl)cc3)cc2)[C@H]1C(=O)O` [Example 171, L-Proline, 3-[(4'-chloro[1,1'-biphenyl]-4-yl)carbonyl]-1-(3,3-dimethyl-1-oxobutyl)-, trans-]?
IC50 (MMP-3): 663 nM; IC50 (MMP-9): 3520 nM; IC50 (MMP-2; [1]): 452 nM

`COCCOCOC[C@@H]1CC[C@H](C(=O)c2ccc(-c3ccc(Cl)cc3)cc2)[C@H]1C(=O)O` (relative stereo) [Example 371, Cyclopentanecarboxylic acid, 2-[(4'-chloro[1,1'-biphenyl]-4-yl)carbonyl]-5-[[(2-methoxyethoxy)methoxy]methyl]-, (1α,2β,5β)-] was tested. Which IC50 (MMP-3) did it give?
Its IC50 is 10 nM.

And the IC50 (MMP-9)?
Its IC50 is 26 nM.

And the IC50 (MMP-2; [1])?
Its IC50 is 9.1 nM.

How did the inhibition at 5 µM (MMP-3) turn out when `CCCCCCCCCCOc1ccc(-c2ccc(C(=O)CC(CCCc3ccccc3)C(=O)O)cc2)cc1` (stereo not drawn) [Example 108, [1,1'-Biphenyl]-4-butanoic acid, 4'-(decyloxy)γ-oxo-α-(3-phenylpropyl)-] was run?
Its inhibition at 5 µM is 8%.

What about the inhibition at 5 µM (MMP-9) of the same compound?
The inhibition at 5 µM was 4%.

What about the inhibition at 5 µM (MMP-2) of the same compound?
The inhibition at 5 µM was 16%.

With `CCOc1ccc(-c2ccc(C(=O)CC(CCN3C(=O)c4cc5ccccc5cc4C3=O)C(=O)O)cc2)cc1` (stereo not drawn) [Example 429, 2H-Benz[.function.]isoindole-2-butanoic acid, α-[2-(4'-ethoxy[1,1'-biphenyl]-4-yl)-2-oxoethyl]-1,3-dihydro-1,3-dioxo-] as the compound, how does the IC50 (MMP-3) read?
Its IC50 is 23 nM.

And the IC50 (MMP-9)?
The IC50 was 1.6 nM.

And the IC50 (MMP-2; [1])?
The IC50 was 23 nM.

Which IC50 (MMP-3) does the source give for `CCCSC[C@@H]1CC[C@H](C(=O)c2ccc(-c3ccc(Cl)cc3)cc2)[C@H]1C(=O)O` (relative stereo) [Example 374, Cyclopentanecarboxylic acid, 2-[(4'-chloro[1,1'-biphenyl]-4-yl)carbonyl]-5-[(propylthio)methyl]-, (1α,2β,5β)-] here?
Its IC50 is 54 nM.

And the IC50 (MMP-9)?
The IC50 was 271 nM.

What about the IC50 (MMP-2; [1]) of the same compound?
Its IC50 is 34 nM.

Which results are given for `O=C(c1ccc(-c2ccc(Cl)cc2)cc1)[C@H]1CCN(C(=O)OCc2ccccc2)[C@@H]1C(=O)O` [Example 166, 1,2-Pyrrolidinedicarboxylic acid, 3-[(4'-chloro[1,1'-biphenyl]-4-yl)carbonyl]-, 1-(phenylmethyl) ester, (2S-trans)-]?
IC50 (MMP-3): 103 nM; IC50 (MMP-9): 381 nM; IC50 (MMP-2): 35 nM

`O=C(O)c1ccc(CCC(CC(=O)c2ccc(-c3ccc(Cl)cc3)cc2)C(=O)O)cc1` (stereo not drawn) [Example 153, [1,1'-Biphenyl]-4-butanoic acid, α-[2-(4-carboxyphenyl)ethyl]-4'-chloro-γ-oxo-] was tested. Which IC50 (MMP-3) did it give?
The IC50 was 594 nM.

And the IC50 (MMP-9)?
Its IC50 is 1010 nM.

And the IC50 (MMP-2; [1])?
Its IC50 is 127 nM.

With `CCCCCOc1ccc(-c2ccc(C(=O)[C@H]3CC[C@@H](Sc4ccccc4)[C@@H]3C(=O)O)cc2)cc1` (single isomer, unassigned) [Example 320, Cyclopentanecarboxylic acid, 2-[[4'-(pentyloxy)[1,1'-biphenyl]-4-yl]carbonyl]-5-(phenylthio)-, (1α,2β,5β)-(-)-] as the compound, how does the inhibition at 5 µM (MMP-3) read?
Its inhibition at 5 µM is 6%.

And the inhibition at 5 µM (MMP-9)?
The inhibition at 5 µM was 6%.

What about the inhibition at 5 µM (MMP-2) of the same compound?
The inhibition at 5 µM was 24%.

Which IC50 (MMP-3) does the source give for `O=C(O)[C@H]1[C@H](CN2C(=O)c3cc(Cl)c(Cl)cc3C2=O)CC[C@@H]1C(=O)c1ccc(-c2ccc(Cl)cc2)cc1` (relative stereo) [Example 391, Cyclopentanecarboxylic acid, 2-[(4'-chloro[1,1'-biphenyl]-4-yl)carbonyl]-5-[(5,6-dichloro-1,3-dihydro-1,3-dioxo-2H-isoindol-2-yl)methyl]-, (1α,2β,5β)-] here?
Its IC50 is 19 nM.

And the IC50 (MMP-9)?
Its IC50 is 4.2 nM.

What about the IC50 (MMP-2; [1]) of the same compound?
The IC50 was 14 nM.

From patent publication US5789434A, “Derivatives of substituted 4-biarylbutyric acid as matrix metalloprotease inhibitors” (priority 1995, dated 1998)
